In experiment [1] the target is T1, TYK2 JH2 (Homo sapiens, UniProt P29597).
T1 construct: purchased DiscoverX (KINOMEscan KdELECT service); host or cells: E. coli BL21-derived (T7 phage display) or HEK-293
As to the kind of experiment: TYK2 JH2 binding assay (KINOMEscan KdELECT competitive binding). To be noted: TYK2 JH2 domain, read-out: Biochemical TYK2_DiscoverX_JH2_BND_Kd. The procedure:
Assay A: TYK2 JH2 Binding Assay
Competitive binding studies using TKY2 JH2-domain fragments were conducted by DiscoverX using the KINOMEscan (KdELECT) platform. Kinase-tagged T7 phage strains were prepared in an E. coli host derived from the BL21 strain. E. coli were grown to log-phase and infected with […] and incubated with shaking at 32° C. until lysis. The lysates were centrifuged and filtered to remove cell debris. The remaining kinases were produced in HEK-293 cells and subsequently tagged with DNA for qPCR detection. Streptavidin-coated magnetic beads were treated with biotinylated small molecule ligands for 30 minutes at room temperature to generate affinity resins for kinase assays. The liganded beads were blocked with excess biotin and washed with blocking buffer (SeaBlock (Pierce), 1% BSA, 0.05% Tween 20, 1 mM DTT) to remove unbound ligand and to reduce non-specific binding. Binding reactions were assembled by combining kinases, liganded affinity beads, and test compounds in 1× binding buffer (20% SeaBlock, 0.17×PBS, 0.05% Tween 20, 6 mM DTT). Test compounds were prepared as 111× stocks in 100% DMSO. Kds were determined using an 11-point 3-fold compound dilution series with three DMSO control points. All compounds for Kd measurements are distributed by acoustic transfer (non-contact dispensing) in 100% DMSO. The compounds were then diluted directly into the assays such that the final concentration of DMSO was 0.9%. All reactions performed in polypropylene 384-well plate. Each was a final volume of 0.02 ml. The assay plates were incubated at room temperature with shaking for 1 hour and the affinity beads were washed with wash buffer (1×PBS, 0.05% Tween 20). The beads were then re-suspended in elution buffer (1×PBS, 0.05% Tween 20, 0.5 μM non-biotinylated affinity ligand) and incubated at room temperature with shaking for 30 minutes. The kinase concentration in the eluates was measured by qPCR.

Experiment [2] concerns JAK1/TYK2 pSTAT5 (Tyr694/699) in THP-1 cell line. In words: IFNa-stimulated JAK1/TYK2 pSTAT5 (Tyr694/699) inhibition cellular assay, AlphaLISA. The experiment is classed as cell-based. The note with it: THP-1 cells, IFNa-stimulated, AlphaLISA (Assay B), read-out: Cellular_THP1_IFNa-pSTATS_TYK2. The gist of the method:
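THP-1, 2e4 cells/well, HBSS; cpd 1 h 37 °C (10000–0.04 nM final, 6-fold, 8 pt); IFNa 100 ng/mL added, 30 min; lyse, freeze −80 °C; pSTAT5 AlphaLISA, 615 nm; 4PL IC50, bottom fixed 0, slope −1.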
In general terms: In Alpha technology, singlet oxygen from a donor bead excites a nearby acceptor bead.

Setting [3] is: DiscoverX KINOMEscan KdELECT (Assay A).

Where two headings read alike, the source gives them in different places.

This passage reports Kd and IC50 results from patent US20240025906A1 (NEURON23, INC., priority 2022, published 2024).

T1 sequence (P29597 589-875 limits assumed): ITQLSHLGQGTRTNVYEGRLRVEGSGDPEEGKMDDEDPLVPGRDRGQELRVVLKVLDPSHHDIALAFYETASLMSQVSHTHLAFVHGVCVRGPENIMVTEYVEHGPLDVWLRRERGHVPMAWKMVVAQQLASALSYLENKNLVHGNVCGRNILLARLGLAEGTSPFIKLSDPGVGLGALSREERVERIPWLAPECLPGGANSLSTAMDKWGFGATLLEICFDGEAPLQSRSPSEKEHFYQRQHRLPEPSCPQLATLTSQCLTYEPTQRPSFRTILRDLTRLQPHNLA

In the case of `CNc1ncc(-c2nc3ccc(N4CC(C)OC(C)C4)cn3n2)c2cc(NC(=O)C3CC3)ncc12` (racemic) [Example 480, N-(5-(6-(2,6-dimethylmorpholino)-[1,2,4]triazolo[1,5-a]pyridin-2-yl)-8-(methylamino)-2,7-naphthyridin-3-yl)cyclopropanecarboxamide (trans racemate)], the Kd in experiment [1] (setting [3]) is ≤ 100 nM. Moreover, the IC50 in experiment [2] (Homo sapiens) was ≤ 500 nM.

For `[2H]C([2H])([2H])Nc1ncc(-c2nc3ccccn3n2)c2cc(NC(=O)C3CC3F)ncc12` (racemic) [Example 564, N-(5-([1,2,4]triazolo[1,5-a]pyridin-2-yl)-8-((methyl-d3)amino)-2,7-naphthyridin-3-yl)-2-fluorocyclopropane-1-carboxamide], in experiment [1] (setting [3]), the Kd was ≤ 100 nM. Further, the IC50 in experiment [2] (Homo sapiens) was ≤ 500 nM.

`[2H]C([2H])([2H])Nc1ncc(-c2nc3ccccn3n2)c2cc(NC(=O)C3CC3F)ncc12` (racemic) [Example 565, N-(5-([1,2,4]triazolo[1,5-a]pyridin-2-yl)-8-((methyl-d3)amino)-2,7-naphthyridin-3-yl)-2-fluorocyclopropane-1-carboxamide]: the Kd in experiment [1] (setting [3]) is ≤ 100 nM. In addition, in experiment [2], the IC50 is ≤ 500 nM.

As for `CNc1ncc(/C=C/c2ccc3c(c2)OCC(COC)O3)c2cc(NC(=O)C3CC3)ncc12` (racemic) [Example 789, (E)-N-(5-(2-(2-(methoxymethyl)-2,3-dihydrobenzo[b][1,4]dioxin-6-yl)vinyl)-8-(methylamino)-2,7-naphthyridin-3-yl)cyclopropanecarboxamide], the Kd in experiment [1] (KINOMEscan KdELECT (Assay A)) was ≤ 100 nM. Further, the IC50 in experiment [2] (Homo sapiens) was ≤ 500 nM.

`CNc1ncc(-c2nc3cc(C4CCN([C@@]5(C)COC[C@H]5O)CC4)ccc3o2)c2cc(NC(=O)C3CC3)ncc12` (single isomer, unassigned) [Example 261]: the Kd in experiment [1] (setting [3]) is ≤ 100 nM. Moreover, the IC50 in experiment [2] (Homo sapiens) is ≤ 500 nM.

For the molecule `CNc1ncc(-c2nc3cc(C4CCN([C@]5(C)COC[C@@H]5O)CC4)ccc3o2)c2cc(NC(=O)C3CC3)ncc12` (single isomer, unassigned) [Example 262], the Kd in experiment [1] (setting [3]) was ≤ 100 nM. The IC50 in experiment [2] (Homo sapiens) is ≤ 500 nM.

With `CNc1ncc(-c2nc3cc(N4CCO[C@H](C(C)(F)F)C4)ccc3o2)c2cc(NC(=O)C3CC3)ncc12` (single isomer, unassigned) [Example 331], the Kd in experiment [1] (setting [3]) is ≤ 100 nM. Moreover, the IC50 in experiment [2] (Homo sapiens) is ≤ 500 nM.

`CNc1ncc(-c2nc3cc(N4CCO[C@@H](C(C)(F)F)C4)ccc3o2)c2cc(NC(=O)C3CC3)ncc12` (single isomer, unassigned) [Example 332]: the Kd in experiment [1] (setting [3]) was ≤ 100 nM. The IC50 in experiment [2] (Homo sapiens) is ≤ 500 nM.

`CNc1ncc(-c2nc3cc(OC)ccc3o2)c2cc(NC(=O)[C@@H]3C[C@@H]3C(F)F)ncc12` (single isomer, unassigned) [Example 394]: in experiment [1] (setting [3]), the Kd was ≤ 100 nM. Moreover, the IC50 in experiment [2] (Homo sapiens) was ≤ 500 nM.

For `CNc1ncc(-c2nc3cc(OC)ccc3o2)c2cc(NC(=O)[C@@H]3C[C@@H]3C(F)(F)F)ncc12` (single isomer, unassigned) [Example 397], the Kd in experiment [1] (setting [3]) was ≤ 100 nM. Moreover, the IC50 in experiment [2] (Homo sapiens) was ≤ 500 nM.

Take `CNc1ncc(-c2nc3cc(OC)ccc3o2)c2cc(NC(=O)[C@H]3C[C@H]3C(F)(F)F)ncc12` (single isomer, unassigned) [Example 398]: in experiment [1] (setting [3]), the Kd was ≤ 100 nM. In addition, the IC50 in experiment [2] (Homo sapiens) is > 500 nM.

Regarding `CNc1ncc(-c2nc3cc(OC)ccc3o2)c2cc(NC(=O)[C@@H]3C[C@@H]3CF)ncc12` (single isomer, unassigned) [Example 400], the Kd in experiment [1] (setting [3]) was ≤ 100 nM. The IC50 in experiment [2] (Homo sapiens) was ≤ 500 nM.

For `CNc1ncc(-c2nc3cc(OC)ccc3o2)c2cc(NC(=O)[C@H]3C[C@H]3CF)ncc12` (single isomer, unassigned) [Example 401], the Kd in experiment [1] (setting [3]) is ≤ 100 nM. Further, the IC50 in experiment [2] (Homo sapiens) was ≤ 500 nM.

For `CNc1ncc(-c2nc3cc(N4CCO[C@@H](C)C4)ccc3o2)c2cc(NC(=O)[C@H]3C[C@H]3C(F)F)ncc12` (single isomer, unassigned) [Example 414], in experiment [1] (setting [3]), the Kd is ≤ 100 nM. The IC50 in experiment [2] (Homo sapiens) was ≤ 500 nM.

On to `CNc1ncc(-c2nc3cc(N4CCO[C@@H](C)C4)ccc3o2)c2cc(NC(=O)[C@@H]3C[C@@H]3C(F)F)ncc12` (single isomer, unassigned) [Example 415], for which, in experiment [1] (setting [3]), the Kd was ≤ 100 nM. The IC50 in experiment [2] (Homo sapiens) is ≤ 500 nM.

As to `[2H]C([2H])([2H])Nc1ncc(-c2nc3cc(OC)ccc3o2)c2cc(NC(=O)[C@@H]3C[C@@H]3C)ncc12` (single isomer, unassigned) [Example 437], the Kd in experiment [1] (setting [3]) was ≤ 100 nM. The IC50 in experiment [2] (Homo sapiens) is ≤ 500 nM.

For the molecule `[2H]C([2H])([2H])Nc1ncc(-c2nc3cc(OC)ccc3o2)c2cc(NC(=O)[C@H]3C[C@H]3C)ncc12` (single isomer, unassigned) [Example 438], the Kd in experiment [1] (setting [3]) is ≤ 100 nM. Moreover, in experiment [2], the IC50 was ≤ 500 nM.

For `CNc1ncc(-c2nc3cc(N4CCOCC4)ccc3o2)c2cc(NC(=O)[C@H]3C[C@H]3CF)ncc12` (single isomer, unassigned) [Example 451], the Kd in experiment [1] (setting [3]) was ≤ 100 nM. Also, the IC50 in experiment [2] (Homo sapiens) is ≤ 500 nM.

Take `CNc1ncc(-c2nc3cc(N4CCOCC4)ccc3o2)c2cc(NC(=O)[C@@H]3C[C@@H]3CF)ncc12` (single isomer, unassigned) [Example 452]: the Kd in experiment [1] (setting [3]) was ≤ 100 nM. Further, the IC50 in experiment [2] (Homo sapiens) is ≤ 500 nM.

For `CNc1ncc(-c2nc3cc(OC)ccc3o2)c2cc(NC(=O)[C@H]3C[C@H]3CO)ncc12` (single isomer, unassigned) [Example 467], the Kd in experiment [1] (setting [3]) is ≤ 100 nM. Also, the IC50 in experiment [2] (Homo sapiens) was ≤ 500 nM.

`CNc1ncc(-c2nc3cc(OC)ccc3o2)c2cc(NC(=O)[C@@H]3C[C@@H]3CO)ncc12` (single isomer, unassigned) [Example 468]: the Kd in experiment [1] (setting [3]) was ≤ 100 nM. For the same molecule, in experiment [2] (Homo sapiens), the IC50 was ≤ 500 nM.

Regarding `CC[C@@H]1C[C@H]1C(=O)Nc1cc2c(-c3nc4ccc(OC)cn4n3)cnc(NC)c2cn1` (single isomer, unassigned) [Example 522], the Kd in experiment [1] (setting [3]) is ≤ 100 nM. In addition, the IC50 in experiment [2] (Homo sapiens) was ≤ 500 nM.

Turning to `CNc1ncc(-c2nc3ccc(N4CCOCC4)cn3n2)c2cc(NC(=O)[C@@H](C)F)ncc12` (single isomer, unassigned) [Example 532], the Kd in experiment [1] (setting [3]) is ≤ 100 nM. Besides, the IC50 in experiment [2] (Homo sapiens) is ≤ 500 nM.

As to `CNc1ncc(-c2nc3ccc(N4CCOCC4)cn3n2)c2cc(NC(=O)[C@H](C)F)ncc12` (single isomer, unassigned) [Example 533], the Kd in experiment [1] (setting [3]) is ≤ 100 nM. Further, the IC50 in experiment [2] (Homo sapiens) was > 500 nM.

`CNc1ncc(-c2nc3ccc(N4CCOCC4)cn3n2)c2cc(NC(=O)[C@H]3C[C@H]3C(F)F)ncc12` (single isomer, unassigned) [Example 534]: the Kd in experiment [1] (setting [3]) was ≤ 100 nM. Moreover, in experiment [2] (Homo sapiens), the IC50 is ≤ 500 nM.

With `CNc1ncc(-c2nc3ccc(N4CCOCC4)cn3n2)c2cc(NC(=O)[C@@H]3C[C@@H]3C(F)F)ncc12` (single isomer, unassigned) [Example 535], the Kd in experiment [1] (setting [3]) was ≤ 100 nM. Also, the IC50 in experiment [2] (Homo sapiens) is ≤ 500 nM.

For the molecule `CNc1ncc(-c2nc3ccc(N4CCO[C@@H](C)C4)cn3n2)c2cc(NC(=O)[C@H]3C[C@H]3C(F)(F)F)ncc12` (single isomer, unassigned) [Example 541], the Kd in experiment [1] (setting [3]) was ≤ 100 nM. Besides, in experiment [2] (Homo sapiens), the IC50 is ≤ 500 nM.

In the case of `CNc1ncc(-c2nc3ccc(N4CCO[C@@H](C)C4)cn3n2)c2cc(NC(=O)[C@@H]3C[C@@H]3C(F)(F)F)ncc12` (single isomer, unassigned) [Example 542], the Kd in experiment [1] (setting [3]) was ≤ 100 nM. Further, the IC50 in experiment [2] (Homo sapiens) was ≤ 500 nM.
